Results on 4 molecules are retold here after patent US20120264685A1 (priority 2009, published 2012).

Series [1] relates to RIN5F (Rat Insulinoma) cells. Put plainly: In vitro glucose-dependent insulin secretion (RIN5F cell assay). Format: cell-based. As to conditions: 16.7-mM glucose load, n = 3, mean ± S.D. The procedure, abridged: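 Rat RIN5F cells were preincubated 40 min in Krebs-Ringer buffer with 1.1 mM glucose and 0.5% BSA, pH 7.4, then exposed to test peptidomimetics for 30 min at 37 °C with 16.7 mM or 0 mM glucose. Supernatant insulin was measured by rat insulin ELISA and normalised to total protein (BCA), as pg/μg.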

A further series concerns the target DPP IV enzyme (Homo sapiens, UniProt P27487). Kind of series: Stability against DPP IV enzyme. As to conditions: 2 μM, 37° C. Format: in vitro ADME.
The nature of series [2]: Stability in human plasma. Format: in vitro ADME. As to conditions: 2 μM, 37° C.
Series [3] is described as follows: Stability in simulated gastric fluid. Format: in vitro ADME. As to conditions: 2 μM, 37° C.; for % degradation in 24 h when incubated with simulated gastric fluid: pH 1.5, 24 h; for half-life: simulated gi fluid, pH 1.5, read-out: half-life (t1/2) in simulated gastric fluid. The procedure:
(§1) Reactions were terminated by the addition of TFA/H2O ([…], 10% (v/v)). […] The column was equilibrated with TFA/H20, at a flow rate of 1 mL/min. […] The absorbance was monitored at 206 nm using UV detector and peaks were collected manually prior to ESI-MS analysis.

Series [4] is described as follows: Stability in simulated intestinal fluid. Format: in vitro ADME. As to conditions: 2 μM, 37° C.; for % degradation in 24 h when incubated with simulated intestinal fluid: pH 7.5, 24 h; for half-life: simulated gi fluid, pH 7.5, read-out: half-life (t1/2) in simulated intestinal fluid. How it is done:
as §1

Series [5] is described as follows: Stability in liver microsomes. It counts as in vitro ADME, human. As to conditions: 2 μM, 37° C.; for half-life: human, microsomes, read-out: half-life (t1/2) in liver microsomes. The procedure: as §1
A further series deals with human GLP-1 receptor (human, UniProt P43220 24-463). Kind of series: cell-based or functional assay.

Where a SMILES comes first, the peptide text is derived from it. Where no end group is shown, it is not given here. [ ]: non-standard residue; d: D form. ξ: configuration not given here. ξαMeBip(2'-Et,4'-OMe) = CCc1cc(OC)ccc1-c1ccc(CC(C)(N)C(=O)O)cc1; Bip(2'-Et-4'-OMe) = CCc1cc(OC)ccc1-c1ccc(C[C@H](N)C(=O)O)cc1; ξBip(2'-Et-4'-OMe) = CCc1cc(OC)ccc1-c1ccc(CC(N)C(=O)O)cc1; αMePhe(2-F) = C[C@](N)(Cc1ccccc1F)C(=O)O; ξαMe(hhPhe) = CC(N)(CCCc1ccccc1)C(=O)O; αMeD = C[C@](N)(CC(=O)O)C(=O)O; ξhhPhe = NC(CCCc1ccccc1)C(=O)O; ξαMeD = CC(N)(CC(=O)O)C(=O)O; αMeAPPA = not defined here; αMeS = C[C@](N)(CO)C(=O)O; ξαMeP = CC1(C(=O)O)CCCN1; ξαMeS = CC(N)(CO)C(=O)O; Aib = CC(C)(N)C(=O)O

Sequence of DPP IV enzyme (P27487 whole entry, species assumed): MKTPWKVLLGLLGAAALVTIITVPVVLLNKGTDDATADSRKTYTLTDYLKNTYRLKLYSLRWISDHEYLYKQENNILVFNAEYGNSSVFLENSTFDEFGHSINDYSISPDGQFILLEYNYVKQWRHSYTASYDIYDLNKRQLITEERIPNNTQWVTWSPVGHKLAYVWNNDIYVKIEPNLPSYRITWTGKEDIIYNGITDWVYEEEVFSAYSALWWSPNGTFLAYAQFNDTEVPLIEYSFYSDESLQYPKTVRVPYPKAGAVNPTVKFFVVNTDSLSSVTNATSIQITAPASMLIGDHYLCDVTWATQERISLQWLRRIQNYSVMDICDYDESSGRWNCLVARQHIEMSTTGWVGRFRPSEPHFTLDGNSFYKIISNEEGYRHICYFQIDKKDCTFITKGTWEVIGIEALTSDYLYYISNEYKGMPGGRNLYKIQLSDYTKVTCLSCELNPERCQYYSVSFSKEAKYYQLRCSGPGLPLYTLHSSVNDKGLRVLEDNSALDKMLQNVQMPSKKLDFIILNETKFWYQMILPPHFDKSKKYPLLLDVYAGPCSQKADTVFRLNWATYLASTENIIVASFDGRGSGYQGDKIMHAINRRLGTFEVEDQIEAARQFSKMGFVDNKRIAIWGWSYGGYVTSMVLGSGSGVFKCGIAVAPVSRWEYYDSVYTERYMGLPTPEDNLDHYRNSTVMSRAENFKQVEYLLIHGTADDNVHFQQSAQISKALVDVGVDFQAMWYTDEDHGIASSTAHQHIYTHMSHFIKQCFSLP

As for `CCc1cc(OC)ccc1-c1ccc(CC(NC(=O)C(C)(CC(=O)O)NC(=O)C(C)(CO)NC(=O)[C@@H](NC(=O)[C@H](Cc2ccccc2)NC(=O)[C@@H](NC(=O)CNC(=O)[C@H](CCC(=O)O)NC(=O)[C@H](C)NC(=O)[C@H](Cc2c[nH]cn2)NC(=O)[C@@H](N)C(C)C)[C@@H](C)O)[C@@H](C)O)C(=O)NC(C)(CCCc2ccccc2)C(N)=O)cc1` (some centres unmarked) [compound 112] (H-VHAEGTFT[ξαMeS][ξαMeD][ξBip(2'-Et-4'-OMe)][ξαMe(hhPhe)]-NH2), the “Insulin secretion” value in series [1] (0.1 nM test compd.) turned out to be 12.3 ± 0.33 pg/µg/h. Also, the “Insulin secretion” value in series [1] (1 nM test compd.) was determined as 14.8 ± 0.16 pg/µg/h. For the same molecule, the “Insulin secretion” value in series [1] (10 nM test compd.) came out at 28.1 ± 0.22 pg/µg/h. Further, the “% degradation in 24 h when incubated with DPP-IV enzyme” value (shortened to “% degradation … with DPP-IV enzyme”) at DPP IV enzyme is recorded as 70%. In series [2], the “half-life (t1/2) in human plasma” value was “(9) h” and the “% degradation in 24 h when incubated with human plasma” value (from here on “% degradation … with human plasma”) is reported as 71%. In series [3], the “% degradation in 24 h when incubated with simulated gastric fluid” value (“% degradation … with simulated gastric fluid” below) is recorded as 100% and the half-life was 30 min. Moreover, in series [4], the “% degradation in 24 h when incubated with simulated intestinal fluid” value (from here on “% degradation … with simulated intestinal fluid”) is 100% and the half-life is 30 min. In series [5], the “% degradation in 24 h when incubated with liver microsomes” value (from here on “% degradation … with liver microsomes”) was determined as 100% and the half-life amounted to 30 min.

`CCc1cc(OC)ccc1-c1ccc(CC(C)(NC(=O)[C@H](CC(=O)O)NC(=O)[C@H](CO)NC(=O)[C@@H](NC(=O)[C@H](Cc2ccccc2)NC(=O)[C@@H](NC(=O)CNC(=O)[C@H](CCC(=O)O)NC(=O)C2(C)CCCN2C(=O)[C@H](Cc2c[nH]cn2)NC(=O)[C@@H](N)C(C)C)[C@@H](C)O)[C@@H](C)O)C(=O)NC(C)(CCCc2ccccc2)C(N)=O)cc1` (some centres unmarked) [compound 140] (H-VH[ξαMeP]EGTFTSD[ξαMeBip(2'-Et,4'-OMe)][ξαMe(hhPhe)]-NH2): the results for the “Insulin secretion” value in series [1] (0.1 nM test compd.), in series [1] (1 nM test compd.) and in series [1] (10 nM test compd.) were 16.6 ± 0.41 pg/µg/h, 22.9 ± 0.32 pg/µg/h and 36.7 ± 0.11 pg/µg/h, respectively. Moreover, the “% degradation … with DPP-IV enzyme” value at DPP IV enzyme is reported as 86%. Also, the “half-life (t1/2) in human plasma” value in series [2] is “(9) h”. The “% degradation … with human plasma” value in series [2] turned out to be 70%. In addition, in series [3], the “% degradation … with simulated gastric fluid” value is 100%. Besides, the half-life in series [3], in series [4] and in series [5] was 30 min each time. Besides, the “% degradation … with simulated intestinal fluid” value in series [4] was 100%. For the same molecule, the “% degradation … with liver microsomes” value in series [5] came out at 100%.

Take `CCc1cc(OC)ccc1-c1ccc(CC(C)(NC(=O)[C@H](CC(=O)O)NC(=O)C(C)(CO)NC(=O)[C@@H](NC(=O)[C@H](Cc2ccccc2)NC(=O)[C@@H](NC(=O)CNC(=O)[C@H](CCC(=O)O)NC(=O)[C@H](C)NC(=O)[C@H](Cc2c[nH]cn2)NC(=O)[C@@H](N)C(C)C)[C@@H](C)O)[C@@H](C)O)C(=O)NC(CCCc2ccccc2)C(N)=O)cc1` (some centres unmarked) [compound 38] (H-VHAEGTFT[ξαMeS]D[ξαMeBip(2'-Et,4'-OMe)][ξhhPhe]-NH2): the figures for the “Insulin secretion” value in series [1] (0.1 nM test compd.), in series [1] (1 nM test compd.) and in series [1] (10 nM test compd.) were 13.1 ± 0.11 pg/µg/h, 14.9 ± 0.17 pg/µg/h and 28.8 ± 0.44 pg/µg/h, respectively. At DPP IV enzyme, the “% degradation … with DPP-IV enzyme” value worked out at 00%. Besides, the half-life on DPP IV enzyme (read-out: half-life (t1/2) with DPP-IV enzyme) is over 1440 min; in series [2] (human, plasma, read-out: half-life (t1/2) in human plasma) it was over 1440 min; in series [3], over 1440 min; in series [4], over 1440 min. For the same molecule, in series [2], the “% degradation … with human plasma” value turned out to be 00%. Further, the “% degradation … with simulated gastric fluid” value in series [3] is listed as 00%. Also, the “% degradation … with simulated intestinal fluid” value in series [4] is 00%. The “half-life (t1/2) in liver microsomes” value in series [5] is on record as “(5) h”. Moreover, in series [5], the “% degradation … with liver microsomes” value worked out at 31%.

As to VH[Aib]EGT[αMePhe(2-F)]T[αMeS][αMeD][Bip(2'-Et-4'-OMe)][αMeAPPA] (not fully specified (C-terminus); reading uncertain) [Seq. ID. No. 121], the “EC50, in-vitro human GLP-1 receptor agonistic activity (cAMP)” value with human GLP-1 receptor amounted to 8 nM.
